Experiments:
Assay type in all cases: cell-based
[1] = tested on: multiple lung and mixed leader:follower lines; experiment: Collective invasion of spheroids embedded in Matrigel; conditions: alexidine alone
Excerpt: Brightfield representative images are shown. Solid lines designate outer perimeter. Scale bar=50 μm.
(§1) Compounds were screened, and it was discovered that most compounds effective at inhibiting lead cells were typically anti-metabolic agents that disrupt OXPHOS. One such compound, alexidine hydrochloride targets mitochondrial function. Leader cells are sensitive to mitochondria-targeting agents as a class.
(§2) Since alexidine inhibits active PDH in leaders and Bay-876 targets GLUT1, the combination of alexidine and Bay-876 to co-target these cellular subtypes, respectively, during collective invasion was examined. To quantitatively determine synergy a combination index analyses was used. […] Importantly, normal lung epithelial cells (HBEC, MRC5) had no synergy at low and moderate doses (FIG. 8A). The effects of Bay-876 plus alexidine on invasion were examined. […] It is also contemplated that one can co-target metabolically heterogeneous populations using the combination of the leader cell targeting agent, alexidine, and the GLUT1 targeting agent, BAY-876 or the glycolytic/PPP activity of followers and OXHOS-driven biology of the leaders in a manor illustrated in the table below.

leader cells [2] = experiment: Lactate production after alexidine treatment; conditions: alexidine treatment for 24 hours
[3] = tested on: p-PDHS293 in leader cells; experiment: p-PDHS293 after alexidine treatment, leader cells; conditions: alexidine treatment for 24 hours
Excerpt: Alexidine Dihydrochloride Induces Metabolic Reprogramming of Leader Cells Via S293 Phosphorylation of PDH
as §2

[4] = tested on: pPDHS293 in follower cells; experiment: pPDHS293 after alexidine treatment, follower cells
leader cells [5] = experiment: Cell death in leader cells; conditions: after 72 hours
Excerpt: as §1

follower/leader cells = conditions: leaders vs followers; 72 hrs of treatment; FIG. 3D
[6] = tested on: GLUT1 mRNA expression in followers; experiment: GLUT1 mRNA expression by qRT-PCR; conditions: 24 hrs, FIG. 7C
Description: (§3) To determine how GLUT1 expression in followers could be regulated upstream, signaling alterations that might contribute to altered GLUT1 expression in leaders and followers were evaluated. YAP and TAZ are transcriptional co-activators of TEAD (Hippo signaling) and regulate GLUT1 expression. YAP/TEAD 1-4 members were interrogated. […] Cells were treated with the YAP/TEAD inhibitor, verteporfin, which has promising anti-tumor activity.

parental H1299 cells = experiment: Spheroid invasion assay, parental H1299; conditions: FIG. 7E
Description: as §3

H1299 cells = experiment: Cell number / viability after verteporfin; conditions: parental H1299 cells; 72 hours; FIG. 7D
Description: as §3

Compound: CCCCC(CC)CNC(=N)NC(=N)NCCCCCCNC(=N)NC(=N)NCC(CC)CCCC (centres unmarked) [Alexidine, 1,1′-(hexane-1,6-diyl)bis(5-(2-ethylhexyl)biguanidine)]
- doses decreasing invasiveness relative to doses inducing cell death ([1]; earlier time points prior to effect on proliferation): doses lower than those that induce cell death
- collective invasion ([1]; multiple lung cell lines): dose-dependent inhibition
- lactate production (leader cells [2]): increased lactate production
- p-PDHS293 level [3]: increased p-PDHS293
- impact on pPDHS293 [4]: no significant impact
- cell death (leader cells [5]): no significant amount of cell death

Compound: CN(C)C(=N)N=C(N)N [metformin]
- sensitivity of leaders to complex I inhibitors (proliferation) (follower/leader cells): increased sensitivity

Compound: C/C=C(\C)[C@H](O)[C@H](C)/C=C(C)/C=C/C/C(C)=C/Cc1nc(OC)c(OC)c(O)c1C [piericidin, piericidin A]
- sensitivity of leaders to complex I inhibitors (proliferation) (follower/leader cells): increased sensitivity

Compound: verteporfin
- GLUT1 mRNA expression [6]: suppressed GLUT1 mRNA expression in followers in a dose-dependent manner
- invasive properties (invasive area) (parental H1299 cells): significantly reduced
- proliferative properties (cell number) (H1299 cells): significantly reduced
